Measurements published in patent publication US6498005B1, “Homogeneous assay methods” (Caliper Technologies Corp., priority 1998, dated 2002).

Experiments:
[1] = target: T1, catalytic subunit of cAMP dependent protein kinase A (PKA) (Bos taurus, UniProt P00517); assay: Homogeneous PKA kinase assay: thiophosphorylation, biotinylation, fluorescence polarization with streptavidin; format: biochemical
T1 construct: purchased Promega Corp. V5161
Method: A typical reaction mixture (50 μl) contained 20 mM HEPES pH 7.5, 10 mM MgCl2, 50 μM fluorescein labeled Kemptide (Research Genetics, Huntsville, Ala., USA), 500 μM ATPγS (Sigma, St. Louis, Mo., USA, #A-1388), and 1 μl of the catalytic subunit of cAMP dependent protein kinase A (Promega Corp., Madison, Wis., USA, #V5161). The approximate final concentration of the enzyme was 700 nM. […] The mixture was incubated at room temperature for 15 min and the reaction terminated by the addition of EDTA to 45 mM. As a negative control, EDTA was added to one of the reaction mixtures before the addition of the kinase. The extent of thiophosphorylation was then analyzed by capillary electrophoresis with fluorescence detection either on a Beckman P/ACE System 5500 instrument, using a 50 μm fused silica capillary with 50 mM borate, pH 8.6 as the separation buffer, or on a microfabricated chip as described in Cohen et al., Anal. Chem. 273:89-97 (1999). Substrate and product peak areas were integrated and the extent of substrate phosphorylation was determined from their ratio. […] The outcome of the biotinylation reaction could be determined at this point by capillary electrophoresis as described above, however, this is not required, nor is it preferred. […] An aliquot (1 μl) of the biotinylation reaction from step B was diluted in 400 μl of 50 mM HEPES, pH 7.4 and its fluorescence polarization measured. […]

PKA = PKA (Bos taurus, UniProt P00517); assay: PKA assays at different ATPγS concentrations on a microchip; format: biochemical; details: read-out: Km (Michaelis-Menten constant for the co-factor)
Method: A typical reaction mixture (50 μl) contained 20 mM HEPES pH 7.5, 10 mM MgCl2, 50 μM fluorescein labeled Kemptide (Research Genetics, Huntsville, Ala., USA), 500 μM ATPγS (Sigma, St. Louis, Mo., USA, #A-1388), and 1 μl of the catalytic subunit of cAMP dependent protein kinase A (Promega Corp., Madison, Wis., USA, #V5161). The approximate final concentration of the enzyme was 700 nM. […] The mixture was incubated at room temperature for 15 min and the reaction terminated by the addition of EDTA to 45 mM. As a negative control, EDTA was added to one of the reaction mixtures before the addition of the kinase. The extent of thiophosphorylation was then analyzed by capillary electrophoresis with fluorescence detection either on a Beckman P/ACE System 5500 instrument, using a 50 μm fused silica capillary with 50 mM borate, pH 8.6 as the separation buffer, or on a microfabricated chip as described in Cohen et al., Anal. Chem. 273:89-97 (1999). Substrate and product peak areas were integrated and the extent of substrate phosphorylation was determined from their ratio.
Following a 15-min incubation, the reactions were stopped by the addition of EDTA, treated with iodoacetyl-LC-biotin, and analyzed by fluorescence polarization in the presence of streptavidin. […]

| IC50 ([1]; H-89 0.5-10 μM, 500 μM ATPγS, 50 μM fluorescein labeled Kemptide, 15-min incubation at room temperature, estimated from substrate conversion) [nM] | Ki ([1]; calculated from IC50=Ki(1+[S]/Km), ATPγS 500 μM, Km about 6 μM) [nM] | Compound | Km (PKA) [µM] |
| --- | --- | --- | --- |
| ~5000 | ~60 | O=S(=O)(NCCNC/C=C/c1ccc(Br)cc1)c1cccc2cnccc12 [H-89] |  |
|  |  | Nc1ncnc2c1ncn2[C@@H]1O[C@H](COP(=O)(O)OP(=O)(O)OP(O)(O)=S)[C@@H](O)[C@H]1O [ATPγS] | ~6 |
